Assay results from patent US8816089B2, “Methods for controlling SR protein phosphorylation, and antiviral agents whose active ingredients comprise agents that control SR protein activity” (priority 2003, dated 2014).

Tests used:
[1] = system: Chinese hamster CHL cells; assay: Chromosomal screening test for mutagenicity in mammalian cells
HIV = HIV infection experiment in MT-4 cells, HIVp24 by Lumipulse ELISA; conditions: supernatant after 48 hours
PKA = conditions: final concentration of 10 μM
SRp75 protein = assay: In vivo inhibition of SR protein phosphorylation and induction of SR protein degradation, Western blot of HA-SRp75; assay type: cell-based, human; conditions: Flp-In-293 cells, SRPIN-1 10, 20, or 50 μM with MG132 10 μM, 15 hours
Protocol: FIG. 4C: Evaluation of in-vivo inhibition of SR protein phosphorylation using SRPIN-1, and evaluation of the induction of the accompanying SR protein degradation. HA-SRp75 plasmid was introduced into Flp-In293 cells. After 36 hours, MG132 (final concentration: 10 μM) and SRPIN-1 (10, 20, or 50 μM) were added to the cells. The cells were incubated for 15 hours and then lysed. After SDS-PAGE, the samples were analyzed by Western blotting using anti-HA antibody. Western analysis was also carried out using an antibody against beta actin as a control protein amount.
HA-SRp75 plasmid (1.0 μg) was introduced into Flp-In-293 cells. After 36 hours, MG132 (final concentration: 10 μM) and SRPIN-1 (10, 20, or 50 μM) were added, and the cells were incubated for 15 hours. Then, the cells were lysed with SDS-PAGE sample buffer. The lysate was used as a protein sample. The sample was fractionated by SDS-PAGE and analyzed by Western blotting using the anti-HA antibody. In addition, as a control for protein amount, Western analysis was carried out using anti-beta actin antibody.

SARS virus (FFM-1) = assay type: cell-based
PKC = assay: Kinase phosphorylation assay, same technique as for SRPK1; assay type: biochemical; conditions: final concentration of 10 μM
Cytomegalovirus = conditions: HFL1 cells
SRPK1 = biological target: T1, SRPK1 (Homo sapiens, UniProt Q96SB4); assay: SRPK1 phosphorylation activity assay with RS peptide and [γ-32P]ATP; assay type: biochemical
T1 construct: made in house; host or cells: E. coli

Slc:SD rats = assay: Single-dose oral administration toxicity test
Protocol: The toxicity of SRPIN-1 was tested by single-dose oral administration to rats. SRPIN-1 was orally administered at a dose of 125, 250, 500, 1000, or 2000 mg/kg (in a volume of 10 ml per kg) to Slc:SD rats (five weeks old; Japan SLC, Inc.) whose weight gain and general conditions were normal during the acclimatization period. Each group included two males and two females. The animals were fasted from the evening of the day before administration until about four hours after administration. […] Then, SRPIN-1 was likewise orally administered at a dose of 2000 mg/kg to five male and five female Slc:SD rats (five weeks old).

SRPK2 = SRPK2 (Homo sapiens, UniProt P78362); assay: Kinase phosphorylation assay, same technique as for SRPK1; assay type: biochemical; conditions: final concentration of 10 μM
PRP4 = PRP4 (Homo sapiens, UniProt Q13523); assay: as above; assay type: biochemical; conditions: final concentration of 10 μM
sindbis virus = assay type: cell-based

T1 sequence (Q96SB4 whole entry, species assumed): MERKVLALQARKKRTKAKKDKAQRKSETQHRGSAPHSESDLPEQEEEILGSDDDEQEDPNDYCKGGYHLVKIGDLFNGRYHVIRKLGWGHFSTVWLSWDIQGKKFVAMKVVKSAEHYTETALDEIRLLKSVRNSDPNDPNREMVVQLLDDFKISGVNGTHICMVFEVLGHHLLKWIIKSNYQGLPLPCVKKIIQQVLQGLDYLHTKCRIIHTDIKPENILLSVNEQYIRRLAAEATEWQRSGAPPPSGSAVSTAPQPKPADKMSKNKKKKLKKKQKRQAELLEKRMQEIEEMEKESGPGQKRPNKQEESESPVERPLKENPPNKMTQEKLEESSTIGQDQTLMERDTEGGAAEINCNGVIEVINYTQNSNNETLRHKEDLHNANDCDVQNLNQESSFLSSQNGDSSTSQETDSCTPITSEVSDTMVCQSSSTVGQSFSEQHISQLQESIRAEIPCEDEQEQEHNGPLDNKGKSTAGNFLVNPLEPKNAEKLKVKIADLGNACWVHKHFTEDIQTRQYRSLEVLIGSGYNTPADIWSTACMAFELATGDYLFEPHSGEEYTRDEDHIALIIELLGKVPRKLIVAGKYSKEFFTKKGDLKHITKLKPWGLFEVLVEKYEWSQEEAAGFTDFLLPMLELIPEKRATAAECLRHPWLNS
Sequence of PRP4 (Q13523 whole entry): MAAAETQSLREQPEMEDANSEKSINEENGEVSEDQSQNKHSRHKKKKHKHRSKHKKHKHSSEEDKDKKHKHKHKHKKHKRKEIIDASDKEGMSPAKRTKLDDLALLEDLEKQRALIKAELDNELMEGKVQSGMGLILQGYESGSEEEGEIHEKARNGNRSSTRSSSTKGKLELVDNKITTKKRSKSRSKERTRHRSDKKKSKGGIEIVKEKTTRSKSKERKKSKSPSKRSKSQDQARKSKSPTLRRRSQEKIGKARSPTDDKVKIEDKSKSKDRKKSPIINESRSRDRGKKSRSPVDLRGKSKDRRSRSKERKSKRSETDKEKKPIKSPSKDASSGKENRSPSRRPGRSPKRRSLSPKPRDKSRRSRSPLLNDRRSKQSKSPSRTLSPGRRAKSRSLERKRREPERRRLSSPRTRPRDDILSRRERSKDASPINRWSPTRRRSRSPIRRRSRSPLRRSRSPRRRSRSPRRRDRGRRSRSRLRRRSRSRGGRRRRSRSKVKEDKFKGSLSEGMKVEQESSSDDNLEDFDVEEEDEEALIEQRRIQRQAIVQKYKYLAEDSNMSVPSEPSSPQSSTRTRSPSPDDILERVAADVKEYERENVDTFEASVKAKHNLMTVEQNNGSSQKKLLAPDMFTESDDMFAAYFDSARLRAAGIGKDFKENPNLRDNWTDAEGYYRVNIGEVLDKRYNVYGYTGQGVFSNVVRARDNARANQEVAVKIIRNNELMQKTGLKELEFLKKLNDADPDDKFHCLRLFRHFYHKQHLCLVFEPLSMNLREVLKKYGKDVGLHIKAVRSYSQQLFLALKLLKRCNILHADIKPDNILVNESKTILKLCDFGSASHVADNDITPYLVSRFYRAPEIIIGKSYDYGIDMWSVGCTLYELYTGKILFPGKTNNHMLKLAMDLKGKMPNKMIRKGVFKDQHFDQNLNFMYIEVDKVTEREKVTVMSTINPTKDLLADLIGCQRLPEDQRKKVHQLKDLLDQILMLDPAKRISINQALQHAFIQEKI
Sequence of SRPK2 (P78362 whole entry, species assumed): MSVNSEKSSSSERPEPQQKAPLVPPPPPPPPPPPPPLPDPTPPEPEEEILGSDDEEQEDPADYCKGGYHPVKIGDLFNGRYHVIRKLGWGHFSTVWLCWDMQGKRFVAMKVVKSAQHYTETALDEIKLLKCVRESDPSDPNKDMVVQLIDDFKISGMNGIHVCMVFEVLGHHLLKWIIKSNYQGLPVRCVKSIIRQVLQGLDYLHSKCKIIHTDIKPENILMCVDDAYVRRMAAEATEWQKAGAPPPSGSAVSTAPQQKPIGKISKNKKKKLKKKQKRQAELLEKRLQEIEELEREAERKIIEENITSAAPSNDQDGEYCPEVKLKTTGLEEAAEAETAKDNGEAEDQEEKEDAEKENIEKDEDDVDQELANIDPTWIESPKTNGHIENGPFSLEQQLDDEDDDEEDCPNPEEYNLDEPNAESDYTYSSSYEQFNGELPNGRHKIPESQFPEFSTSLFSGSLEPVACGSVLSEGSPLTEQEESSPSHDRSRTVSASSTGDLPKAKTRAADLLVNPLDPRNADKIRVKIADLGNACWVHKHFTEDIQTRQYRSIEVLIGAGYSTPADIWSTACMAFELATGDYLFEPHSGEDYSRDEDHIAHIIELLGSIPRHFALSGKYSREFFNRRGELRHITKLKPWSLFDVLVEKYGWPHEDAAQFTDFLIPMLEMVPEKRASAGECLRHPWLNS

## O=C(Nc1cc(C(F)(F)F)ccc1N1CCCCC1)c1ccncc1 [Compound No. 340, N-[2-(1-piperidinyl)-5-(trifluoromethyl)phenyl]isonicotinamide]
[1]; continuous treatment method (24 hours), 5, 1.58, or 0.5 mg/ml
  increase in the number of cells with structural and numerical chromosomal abnormalities: negative (When the frequency of cell abnormality was less than 5%, the testing substance was judged to be negative)
[1]; short treatment method (+S9 mix, six hours), 5, 1.58, or 0.5 mg/ml
  increase in the number of cells with structural and numerical chromosomal abnormalities: negative (When the frequency of cell abnormality was less than 5%, the testing substance was judged to be negative)
HIV; MT-4 cells, 5, 10, or 20 μM
  effect in suppressing HIV replication (HIVp24): strong effects in suppressing HIV propagation
HIV; MT-4 cells, SRPIN-1 0.5, 10, or 20 μM
  amount of HIVp24: decreased in an SRPIN-1 concentration-dependent manner
PKA
  inhibitory effect on PKA: did not exhibit an inhibitory effect
SRp75 protein
  HA antibody signal (HA-SRp75): weakened depending on the concentration of SRPIN-1
SARS virus (FFM-1)
  SARS virus propagation, concentration dependence (plaque assay): suppress SARS virus propagation in a concentration-dependent manner
SARS virus (FFM-1); Vero cells, 40 μM, 48 hours
  SARS virus propagation (plaque assay): significantly suppressed SARS virus propagation
SARS virus (FFM-1); Vero cells, SARS virus
  viral propagation-suppressing effect compared with Compound No. 349: stronger than that of the analog compound (Compound No. 349)
PKC
  inhibitory effect on PKC: did not exhibit an inhibitory effect
Cytomegalovirus; 20 μM, seven days after infection
  morphological changes and cell death caused by cytomegalovirus infection: neither abnormal morphological changes nor cell death were detectable
Cytomegalovirus; 40 μM
  morphological changes induced by the compound: Partial morphological changes thought to be induced by SRPIN-1 were detectable
SRPK1
  IC50: ~400 nM
Slc:SD rats; oral 2000 mg/kg, observed for 14 days
  death: none of the male and female rats died
Slc:SD rats; oral 125, 250, 500, 1000, or 2000 mg/kg, two days after administration
  death: None of the male and female rats died
Slc:SD rats; rat, in vivo, po, 2000 mg/kg
  general condition: no abnormalities were detectable in their general condition
SRPK2
  inhibitory effect on SRPK2: did not exhibit an inhibitory effect
PRP4
  inhibitory effect on PRP4: did not exhibit an inhibitory effect
Sindbis virus
  cell damage caused by sindbis virus propagation: dramatically suppressed
  propagation of sindbis virus (plaque assay): significantly suppressed the propagation of sindbis virus in a concentration-dependent manner
